According to paper PMC9719519, “Non-classical ferroptosis inhibition by a small molecule targeting PHB2” (Nature Communications, 2022):

How the values were obtained:
Test in all cases: biochemical
Parameters in all cases: Eurofins recombinant human kinase profiling, remaining kinase activity as % of control, 10 uM ATP
Settings in all cases: ATP 10 uM; read-out: %Ctrl@10 μM
ALK6(h) = target: T1, ALK6(h) (Homo sapiens, UniProt O00238)
T1 construct: gene BMPR1B
Summary of the method: (§1)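 Activity measured in a commercial panel of 401 recombinant human protein kinases run as a kinase profiling service.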

BMPR2(h) = BMPR2(h) (Homo sapiens, UniProt Q13873)
BMPR2(h), sequence (Q13873 whole entry): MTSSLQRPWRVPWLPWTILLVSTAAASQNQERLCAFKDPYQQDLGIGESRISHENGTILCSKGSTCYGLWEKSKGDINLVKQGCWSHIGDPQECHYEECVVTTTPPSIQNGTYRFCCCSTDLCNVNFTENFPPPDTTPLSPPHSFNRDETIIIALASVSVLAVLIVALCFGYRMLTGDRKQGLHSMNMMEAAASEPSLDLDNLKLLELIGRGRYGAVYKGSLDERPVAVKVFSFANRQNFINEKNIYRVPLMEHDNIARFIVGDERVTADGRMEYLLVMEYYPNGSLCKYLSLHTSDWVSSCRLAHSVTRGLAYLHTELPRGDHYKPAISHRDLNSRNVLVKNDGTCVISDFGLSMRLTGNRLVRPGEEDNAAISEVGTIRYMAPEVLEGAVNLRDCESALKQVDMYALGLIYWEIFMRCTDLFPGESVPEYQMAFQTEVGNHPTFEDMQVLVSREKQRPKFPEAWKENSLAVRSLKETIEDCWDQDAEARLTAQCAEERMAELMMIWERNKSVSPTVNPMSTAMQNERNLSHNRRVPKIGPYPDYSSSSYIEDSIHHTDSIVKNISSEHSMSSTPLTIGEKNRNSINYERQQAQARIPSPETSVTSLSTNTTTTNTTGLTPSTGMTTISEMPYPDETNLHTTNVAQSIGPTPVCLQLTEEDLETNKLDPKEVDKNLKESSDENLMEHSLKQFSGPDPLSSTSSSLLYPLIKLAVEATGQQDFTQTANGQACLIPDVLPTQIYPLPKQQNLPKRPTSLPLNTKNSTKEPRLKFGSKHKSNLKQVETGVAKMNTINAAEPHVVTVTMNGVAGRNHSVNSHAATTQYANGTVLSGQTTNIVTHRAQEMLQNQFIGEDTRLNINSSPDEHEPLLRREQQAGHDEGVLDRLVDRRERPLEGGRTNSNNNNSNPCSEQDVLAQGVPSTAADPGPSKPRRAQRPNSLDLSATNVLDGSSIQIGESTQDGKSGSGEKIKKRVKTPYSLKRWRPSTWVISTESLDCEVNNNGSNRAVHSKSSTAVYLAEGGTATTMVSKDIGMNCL
Summary of the method: as §1

CK1γ3(h) = target: T2, CK1γ3(h) (Homo sapiens, UniProt Q9Y6M4)
T2 construct: gene CSNK1G3
Summary of the method: as §1

DRAK1(h) = target: T3, DRAK1(h) (Homo sapiens, UniProt Q9UEE5)
T3 construct: gene STK17A
Summary of the method: as §1

FGFR3(h) = FGFR3(h) (Homo sapiens, UniProt P22607)
Summary of the method: as §1

GRK3(h) = GRK3(h) (Homo sapiens, UniProt P35626)
GRK3(h), sequence (P35626 whole entry): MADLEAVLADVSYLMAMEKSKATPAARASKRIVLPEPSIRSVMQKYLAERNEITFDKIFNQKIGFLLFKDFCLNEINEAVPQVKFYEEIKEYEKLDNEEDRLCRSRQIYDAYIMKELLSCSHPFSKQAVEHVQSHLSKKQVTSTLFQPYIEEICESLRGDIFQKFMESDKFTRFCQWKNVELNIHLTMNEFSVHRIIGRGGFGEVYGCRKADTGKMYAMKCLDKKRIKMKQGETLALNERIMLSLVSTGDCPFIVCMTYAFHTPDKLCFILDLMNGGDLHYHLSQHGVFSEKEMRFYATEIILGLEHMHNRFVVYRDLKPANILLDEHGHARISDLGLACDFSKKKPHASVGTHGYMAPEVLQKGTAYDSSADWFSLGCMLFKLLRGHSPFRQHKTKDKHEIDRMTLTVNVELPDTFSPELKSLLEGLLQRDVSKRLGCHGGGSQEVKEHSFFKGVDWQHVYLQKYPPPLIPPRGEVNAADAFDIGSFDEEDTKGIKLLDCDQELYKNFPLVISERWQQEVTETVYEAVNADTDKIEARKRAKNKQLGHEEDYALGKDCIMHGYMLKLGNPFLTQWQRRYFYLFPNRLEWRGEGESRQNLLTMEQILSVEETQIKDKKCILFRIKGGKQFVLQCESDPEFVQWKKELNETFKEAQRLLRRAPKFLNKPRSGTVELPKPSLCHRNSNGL
Summary of the method: as §1

IR(h) = target: T4, IR(h) (Homo sapiens, UniProt P06213)
T4 construct: gene INSR
Summary of the method: as §1

MINK(h) = target: T5, MINK(h) (Homo sapiens, UniProt Q8N4C8)
T5 construct: gene MINK1
Summary of the method: as §1

MSSK1(h) = target: T6, MSSK1(h) (Homo sapiens, UniProt Q9UPE1)
T6 construct: gene SRPK3
Summary of the method: as §1

MST4(h) = target: T7, MST4(h) (Homo sapiens, UniProt Q9P289)
T7 construct: gene STK26
Summary of the method: as §1

Met(h) = Met(h) (Homo sapiens, UniProt P08581)
Summary of the method: as §1

NIM1(h) = target: T8, NIM1(h) (Homo sapiens, UniProt Q8IY84)
T8 construct: gene NIM1K
Summary of the method: as §1

NUAK2(h) = NUAK2(h) (Homo sapiens, UniProt Q9H093)
NUAK2(h), sequence (Q9H093 whole entry): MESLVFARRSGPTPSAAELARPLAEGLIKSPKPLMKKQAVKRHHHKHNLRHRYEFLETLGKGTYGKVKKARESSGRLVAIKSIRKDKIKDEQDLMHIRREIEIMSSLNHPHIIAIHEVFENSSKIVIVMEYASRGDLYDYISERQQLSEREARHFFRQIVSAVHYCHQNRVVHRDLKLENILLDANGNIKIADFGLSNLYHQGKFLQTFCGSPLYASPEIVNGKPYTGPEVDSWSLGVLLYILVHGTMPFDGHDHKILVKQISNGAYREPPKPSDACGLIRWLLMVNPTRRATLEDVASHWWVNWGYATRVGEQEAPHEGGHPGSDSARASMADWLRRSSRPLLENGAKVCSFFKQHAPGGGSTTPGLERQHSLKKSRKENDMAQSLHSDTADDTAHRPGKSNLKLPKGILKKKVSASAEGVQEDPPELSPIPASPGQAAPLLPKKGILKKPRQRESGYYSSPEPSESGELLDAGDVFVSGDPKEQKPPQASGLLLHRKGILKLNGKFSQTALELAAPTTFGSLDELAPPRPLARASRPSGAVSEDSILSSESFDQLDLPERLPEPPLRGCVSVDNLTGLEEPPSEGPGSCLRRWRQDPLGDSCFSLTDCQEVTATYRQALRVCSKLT
Summary of the method: as §1

PAK6(h) = PAK6(h) (Homo sapiens, UniProt Q9NQU5)
Summary of the method: as §1

PEK(h) = target: T9, PEK(h) (Homo sapiens, UniProt Q9NZJ5)
T9 construct: gene EIF2AK3
Summary of the method: as §1

PKCβI(h) = target: T10, PKCβI(h) (Homo sapiens, UniProt P05771)
T10 construct: gene PRKCB; isoform beta I
Summary of the method: as §1

Plk1(h) = Plk1(h) (Homo sapiens, UniProt P53350)
Plk1(h), sequence (P53350 whole entry): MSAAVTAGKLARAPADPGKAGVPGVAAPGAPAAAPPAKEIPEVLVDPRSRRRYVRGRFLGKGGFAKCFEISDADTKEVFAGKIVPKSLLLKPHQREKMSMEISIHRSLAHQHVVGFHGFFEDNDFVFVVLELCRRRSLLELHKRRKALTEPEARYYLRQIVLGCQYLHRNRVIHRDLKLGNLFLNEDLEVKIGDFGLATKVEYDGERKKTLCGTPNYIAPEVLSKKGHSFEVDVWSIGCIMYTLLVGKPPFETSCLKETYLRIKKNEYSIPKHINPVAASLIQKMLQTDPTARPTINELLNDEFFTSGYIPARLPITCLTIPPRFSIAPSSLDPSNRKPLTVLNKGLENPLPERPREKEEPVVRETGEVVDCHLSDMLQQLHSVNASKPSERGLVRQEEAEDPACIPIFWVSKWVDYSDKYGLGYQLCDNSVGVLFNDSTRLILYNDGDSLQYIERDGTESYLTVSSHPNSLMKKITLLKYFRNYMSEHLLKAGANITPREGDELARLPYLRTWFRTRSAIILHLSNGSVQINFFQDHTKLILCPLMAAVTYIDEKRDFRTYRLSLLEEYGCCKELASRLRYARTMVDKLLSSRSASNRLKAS
Summary of the method: as §1

Rsk1(h) = target: T11, Rsk1(h) (Homo sapiens, UniProt Q15418)
T11 construct: gene RPS6KA1
Summary of the method: as §1

SRPK2(h) = SRPK2(h) (Homo sapiens, UniProt P78362)
SRPK2(h), sequence (P78362 whole entry): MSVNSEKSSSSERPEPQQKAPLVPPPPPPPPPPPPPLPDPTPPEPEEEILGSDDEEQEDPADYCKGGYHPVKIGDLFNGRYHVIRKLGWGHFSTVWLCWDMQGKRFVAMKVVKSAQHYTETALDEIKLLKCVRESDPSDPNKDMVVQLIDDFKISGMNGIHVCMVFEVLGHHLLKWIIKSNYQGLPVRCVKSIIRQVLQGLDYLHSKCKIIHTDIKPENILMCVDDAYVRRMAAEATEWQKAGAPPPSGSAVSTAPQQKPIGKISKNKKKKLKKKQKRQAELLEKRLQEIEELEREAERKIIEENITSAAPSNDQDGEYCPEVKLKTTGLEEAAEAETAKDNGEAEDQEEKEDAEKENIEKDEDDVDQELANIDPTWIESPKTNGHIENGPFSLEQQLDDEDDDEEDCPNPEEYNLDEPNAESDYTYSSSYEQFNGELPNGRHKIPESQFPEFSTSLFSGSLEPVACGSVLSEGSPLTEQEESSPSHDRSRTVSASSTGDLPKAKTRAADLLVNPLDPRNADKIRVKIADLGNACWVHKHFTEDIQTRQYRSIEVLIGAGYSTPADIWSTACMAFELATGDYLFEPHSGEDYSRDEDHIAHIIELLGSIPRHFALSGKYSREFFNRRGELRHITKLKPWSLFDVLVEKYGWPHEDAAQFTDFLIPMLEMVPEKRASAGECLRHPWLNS
Summary of the method: as §1

TAO2(h) = target: T12, TAO2(h) (Homo sapiens, UniProt Q9UL54)
T12 construct: gene TAOK2
Summary of the method: as §1

ULK1(h) = ULK1(h) (Homo sapiens, UniProt O75385)
Summary of the method: as §1

Wee1B(h) = target: T13, Wee1B(h) (Homo sapiens, UniProt P0C1S8)
T13 construct: gene WEE2
T13 sequence (P0C1S8 whole entry): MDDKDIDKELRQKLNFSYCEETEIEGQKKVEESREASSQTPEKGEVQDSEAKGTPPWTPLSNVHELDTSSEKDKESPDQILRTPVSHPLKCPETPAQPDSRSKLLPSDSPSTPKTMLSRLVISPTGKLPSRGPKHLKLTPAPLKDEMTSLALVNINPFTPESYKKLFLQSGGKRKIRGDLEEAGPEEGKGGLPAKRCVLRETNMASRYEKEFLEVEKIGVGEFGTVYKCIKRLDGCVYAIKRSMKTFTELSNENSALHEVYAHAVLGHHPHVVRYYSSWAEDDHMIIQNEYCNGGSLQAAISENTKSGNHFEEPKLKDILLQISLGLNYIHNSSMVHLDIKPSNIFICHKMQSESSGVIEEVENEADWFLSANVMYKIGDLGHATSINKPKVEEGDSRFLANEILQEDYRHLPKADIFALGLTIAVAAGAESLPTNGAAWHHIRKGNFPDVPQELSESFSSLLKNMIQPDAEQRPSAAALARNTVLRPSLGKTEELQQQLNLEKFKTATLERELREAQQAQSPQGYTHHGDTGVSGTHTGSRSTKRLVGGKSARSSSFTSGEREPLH
Summary of the method: as §1

ZIPK(h) = target: T14, ZIPK(h) (Homo sapiens, UniProt O43293)
T14 construct: gene DAPK3
Summary of the method: as §1

T1 sequence (O00238 whole entry): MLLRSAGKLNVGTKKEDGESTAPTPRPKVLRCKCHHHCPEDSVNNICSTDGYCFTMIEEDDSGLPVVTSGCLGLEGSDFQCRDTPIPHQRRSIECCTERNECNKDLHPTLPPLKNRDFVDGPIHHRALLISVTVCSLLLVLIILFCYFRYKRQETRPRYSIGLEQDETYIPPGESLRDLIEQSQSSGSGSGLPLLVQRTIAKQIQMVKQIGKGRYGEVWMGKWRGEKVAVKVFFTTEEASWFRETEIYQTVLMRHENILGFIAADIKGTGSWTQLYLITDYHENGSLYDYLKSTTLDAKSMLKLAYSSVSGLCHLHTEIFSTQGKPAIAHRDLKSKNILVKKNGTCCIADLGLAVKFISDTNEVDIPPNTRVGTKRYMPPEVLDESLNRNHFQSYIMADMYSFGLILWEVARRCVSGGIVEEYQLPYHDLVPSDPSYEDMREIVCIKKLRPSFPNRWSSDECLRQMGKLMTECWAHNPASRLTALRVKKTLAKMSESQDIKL

C1=C(c2nc(-c3cnn(C4CCNCC4)c3)cn3cc(-c4ccccc4)nc23)CCOC1 [YL-939]
remaining activity at 10 µM (ALK6(h)): 105% | remaining activity at 10 µM (BMPR2(h)): 99% | remaining activity at 10 µM (CK1γ3(h)): 102% | remaining activity at 10 µM (DRAK1(h)): 60% | remaining activity at 10 µM (FGFR3(h)): 83% | remaining activity at 10 µM (GRK3(h)): 92% | remaining activity at 10 µM (IR(h)): 114% | remaining activity at 10 µM (MINK(h)): 95% | remaining activity at 10 µM (MSSK1(h)): 87% | remaining activity at 10 µM (MST4(h)): 112% | remaining activity at 10 µM (Met(h)): 54% | remaining activity at 10 µM (NIM1(h)): 85% | remaining activity at 10 µM (NUAK2(h)): 72% | remaining activity at 10 µM (PAK6(h)): 65% | remaining activity at 10 µM (PEK(h)): 99% | remaining activity at 10 µM (PKCβI(h)): 98% | remaining activity at 10 µM (Plk1(h)): 84% | remaining activity at 10 µM (Rsk1(h)): 94% | remaining activity at 10 µM (SRPK2(h)): 87% | remaining activity at 10 µM (TAO2(h)): 90% | remaining activity at 10 µM (ULK1(h)): 65% | remaining activity at 10 µM (Wee1B(h)): 92% | remaining activity at 10 µM (ZIPK(h)): 88%
